Test results from US10808018B2, “Erythropoietin-derived peptides and methods of protecting cells from oxidative damage induced by reactive oxygen species” (SYLUS CO., LTD., priority 2017, dated 2020).
Peptide text beside a SMILES is read from it.

Target: T1, Soluble mouse EPOR chimera proteins (erythropoietin receptor) (Mus musculus, UniProt P14753)
T1 construct: Soluble mouse EPOR chimera proteins; purchased R&D Systems
T1 sequence (P14753 25-249 limits assumed): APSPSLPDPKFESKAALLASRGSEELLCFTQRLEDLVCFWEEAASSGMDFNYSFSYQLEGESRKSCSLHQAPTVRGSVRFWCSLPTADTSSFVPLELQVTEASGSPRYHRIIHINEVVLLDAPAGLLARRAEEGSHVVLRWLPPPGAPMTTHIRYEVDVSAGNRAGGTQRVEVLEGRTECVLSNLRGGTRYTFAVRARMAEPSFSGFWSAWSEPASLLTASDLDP
Experiment: Surface plasmon resonance (SPR) binding affinity to erythropoietin receptor
Conditions: for Ka: association rate
Description: The SPR technique is to measure interactions between biomolecules in real-time by using an optical principle without specific labeling, and is a system analyzing affinity between two molecules and kinetics, i.e., an association rate (Ka) and a dissociation rate (Kd). In detail, real-time SPR analysis may be performed using Reichert SPR Biosensor SR […] instrument (Reichert Inc., NY, USA). Soluble mouse EPOR chimera proteins (R&D Systems, Minneapolis, Minn., USA) were covalently linked to a carboxymethylated dextran matrix-coated chip (BR-1005-39, Pharmacia Biosensor AB) by an amine coupling procedure using an amine coupling kit (BR-1000-50, GE Healthcare, USA) in accordance with manufacturer's instructions. Each 5 pM, 2.5 pM, and 1.25 pM of the peptide samples of the present disclosure and scrambled peptides were applied at a flow rate of 5 μl/minute, and the experiments were independently performed in duplicate. For signal normalization, DMSO was applied at a flow rate of 5 μl/minute. After each binding cycle, the sensor chip was regenerated by injecting 25 mM of acetic acid at a flow rate of 20 μl/minute.

Row | Structure (SMILES) | Ka (Table 8) | dissociation rate constant (koff) (Table 8) | Ka (Table 9) | dissociation rate constant (koff) (Table 9) | Kd (Table 8)
1 | CC(C)C[C@H](NC(=O)CNC(=O)[C@H](CO)NC(=O)[C@@H](NC(=O)[C@H](C)NC(=O)[C@H](CCCCN)NC(=O)[C@H](CC(=O)O)NC(=O)[C@@H](NC(=O)[C@H](CCC(=O)O)NC(=O)[C@H](CC(C)C)NC(=O)[C@H](CC(=O)O)NC(=O)[C@@H](N)CC(C)C)C(C)C)C(C)C)C(=O)N[C@@H](CCCNC(=N)N)C(=O)N[C@@H](CO)C(=O)N[C@@H](CC(C)C)C(=O)N[C@H](C(=O)N[C@H](C(=O)N[C@@H](CC(C)C)C(=O)N[C@@H](CC(C)C)C(=O)N[C@@H](CCCNC(=N)N)C(=O)N[C@@H](C)C(=O)N[C@@H](CC(C)C)C(=O)NCC(=O)O)[C@@H](C)O)[C@@H](C)O [ML1-C1] (H-LDLEVDKAVSGLRSLTTLLRALG-OH; N-terminus and C-terminus assumed) |  |  | 1745.7 | 0.2617 | 
2 | CC(C)C[C@H](NC(=O)CNC(=O)[C@H](CO)NC(=O)[C@@H](NC(=O)[C@H](CCCNC(=N)N)NC(=O)[C@H](CCCCN)NC(=O)[C@H](CC(=O)O)NC(=O)[C@@H](NC(=O)[C@H](Cc1c[nH]cn1)NC(=O)[C@H](CCCNC(=N)N)NC(=O)[C@H](CCC(N)=O)NC(=O)[C@@H](N)CC(C)C)C(C)C)C(C)C)C(=O)N[C@@H](CCCNC(=N)N)C(=O)N[C@@H](CO)C(=O)N[C@@H](CC(C)C)C(=O)N[C@H](C(=O)N[C@H](C(=O)N[C@@H](CC(C)C)C(=O)N[C@@H](CC(C)C)C(=O)N[C@@H](CCCNC(=N)N)C(=O)N[C@@H](C)C(=O)N[C@@H](CC(C)C)C(=O)NCC(=O)O)[C@@H](C)O)[C@@H](C)O [ML1-C2] (H-LQRHVDKRVSGLRSLTTLLRALG-OH; N-terminus and C-terminus assumed) |  |  | 1.59E+03 | 0.01876 | 
3 | CC(C)C[C@H](NC(=O)CNC(=O)[C@H](CCCCN)NC(=O)[C@@H](NC(=O)[C@H](CCCNC(=N)N)NC(=O)[C@H](CCCCN)NC(=O)[C@H](CCCCN)NC(=O)[C@@H](NC(=O)[C@H](Cc1c[nH]cn1)NC(=O)[C@H](CCCNC(=N)N)NC(=O)[C@H](CCC(N)=O)NC(=O)[C@@H](N)CC(C)C)C(C)C)C(C)C)C(=O)N[C@@H](CCCCN)C(=O)N[C@@H](CO)C(=O)N[C@@H](CC(C)C)C(=O)N[C@H](C(=O)N[C@H](C(=O)N[C@@H](CC(C)C)C(=O)N[C@@H](CC(C)C)C(=O)N[C@@H](CCCNC(=N)N)C(=O)N[C@@H](C)C(=O)N[C@@H](CC(C)C)C(=O)NCC(=O)O)[C@@H](C)O)[C@@H](C)O [ML1-C3] (H-LQRHVKKRVKGLKSLTTLLRALG-OH; N-terminus and C-terminus assumed) |  |  | 1104.9 | 0.01086 | 
4 | CC[C@H](C)[C@H](NC(=O)[C@H](CCSC)NC(=O)[C@H](C)NC(=O)[C@H](CC(C)C)NC(=O)[C@@H](NC(=O)[C@H](CCCNC(=N)N)NC(=O)[C@H](CC(C)C)NC(=O)CNC(=O)[C@H](C)NC(=O)[C@@H](NC(=O)[C@H](C)NC(=O)[C@H](CCCCN)NC(=O)[C@H](CC(C)C)NC(=O)[C@@H](NC(=O)[C@H](Cc1c[nH]cn1)NC(=O)[C@H](CC(C)C)NC(=O)[C@H](CCC(N)=O)NC(=O)[C@@H](N)CC(C)C)C(C)C)C(C)C)[C@@H](C)O)C(=O)N[C@@H](CCCNC(=N)N)C(=O)N[C@@H](CCCNC(=N)N)C(=O)N[C@@H](C)C(=O)N[C@@H](CC(C)C)C(=O)N[C@@H](C)C(=O)O [ML1-H3] (H-LQLHVLKAVAGLRTLAMIRRALA-OH; N-terminus and C-terminus assumed) |  |  | 4157.6 | 4.77E−03 | 
5 | CC(C)C[C@H](NC(=O)[C@H](CCC(=O)O)NC(=O)[C@H](CCCNC(=N)N)NC(=O)[C@H](CC(C)C)NC(=O)[C@H](CC(C)C)NC(=O)[C@H](CCCCN)NC(=O)[C@@H](NC(=O)[C@H](CC(C)C)NC(=O)[C@H](CO)NC(=O)[C@H](CCCNC(=N)N)NC(=O)[C@H](CC(C)C)NC(=O)CNC(=O)[C@H](CO)NC(=O)[C@H](CCC(=O)O)NC(=O)[C@H](C)NC(=O)[C@H](CCCCN)NC(=O)[C@H](CCC(N)=O)NC(=O)[C@@H](NC(=O)[C@H](Cc1c[nH]cn1)NC(=O)[C@@H](N)CCCNC(=N)N)C(C)C)[C@@H](C)O)C(=O)O [ML2-1] (H-RHVQKAESGLRSLTKLLREL-OH; N-terminus and C-terminus assumed) | 3.1 × 10^2 | 4.1 × 10^−3 |  |  | 
6 | CC(C)C[C@H](NC(=O)[C@H](C)NC(=O)[C@H](CCCNC(=N)N)NC(=O)[C@H](CC(C)C)NC(=O)[C@H](CC(C)C)NC(=O)[C@@H](NC(=O)[C@@H](NC(=O)[C@H](CC(C)C)NC(=O)[C@H](CO)NC(=O)[C@H](CCCNC(=N)N)NC(=O)[C@H](CC(C)C)NC(=O)CNC(=O)[C@H](CO)NC(=O)[C@@H](NC(=O)[C@H](C)NC(=O)[C@H](CCCCN)NC(=O)[C@H](CC(=O)O)NC(=O)[C@@H](NC(=O)[C@H](Cc1c[nH]cn1)NC(=O)[C@@H](N)CC(C)C)C(C)C)C(C)C)[C@@H](C)O)[C@@H](C)O)C(=O)O [ML2] (H-LHVDKAVSGLRSLTTLLRAL-OH; N-terminus and C-terminus assumed) |  | 4.4 × 10^−3 |  |  | 
7 | CC(C)[C@H](NC(=O)[C@H](CCCNC(=N)N)NC(=O)[C@@H](N)[C@@H](C)O)C(=O)N[C@@H](CC(N)=O)C(=O)N[C@@H](Cc1ccc(O)cc1)C(=O)N[C@@H](CCC(N)=O)C(=O)N[C@@H](C)C(=O)N[C@@H](Cc1c[nH]c2ccccc12)C(=O)N[C@@H](CCCCN)C(=O)N[C@@H](CCCNC(=N)N)C(=O)O [ML3-1] (H-TRVNYQAWKR-OH; N-terminus and C-terminus assumed) | 3.08 × 10^3 | 1.3 × 10^−2 |  |  | 

Further lines, results first:

Row | Ka (Table 8) | dissociation rate constant (koff) (Table 8) | Ka (Table 9) | dissociation rate constant (koff) (Table 9) | Kd (Table 8) | Structure (SMILES)
8 | 5.55 × 10^3 | 5.9 × 10^−3 |  |  |  | CSCC[C@H](NC(=O)[C@@H](NC(=O)[C@H](Cc1c[nH]cn1)NC(=O)[C@H](CO)NC(=O)[C@H](CC(C)C)NC(=O)[C@H](CC(C)C)NC(=O)CNC(=O)[C@H](CO)NC(=O)[C@@H](NC(=O)[C@H](CCCNC(=N)N)NC(=O)[C@H](CCCCN)NC(=O)[C@H](CC(C)C)NC(=O)[C@@H](NC(=O)[C@H](Cc1c[nH]cn1)NC(=O)[C@H](CC(C)C)NC(=O)[C@H](CCC(N)=O)NC(=O)[C@@H](N)CC(C)C)C(C)C)C(C)C)[C@@H](C)O)C(=O)N[C@@H](CC(C)C)C(=O)N[C@@H](CC(C)C)C(=O)N[C@@H](CCCCN)C(=O)N[C@@H](C)C(=O)N[C@@H](CC(C)C)C(=O)NCC(=O)O [ML1-1] (H-LQLHVLKRVSGLLSHTMLLKALG-OH; N-terminus and C-terminus assumed)
9 |  |  | 1.01E+03 | 7.94E−03 |  | CC(C)C[C@H](NC(=O)CNC(=O)[C@H](CO)NC(=O)[C@@H](NC(=O)[C@H](C)NC(=O)[C@H](CCCCN)NC(=O)[C@H](CC(C)C)NC(=O)[C@@H](NC(=O)[C@H](Cc1c[nH]cn1)NC(=O)[C@H](CC(C)C)NC(=O)[C@H](CCC(N)=O)NC(=O)[C@@H](N)CC(C)C)C(C)C)C(C)C)C(=O)N[C@@H](CC(C)C)C(=O)N[C@H](C(=O)N[C@@H](Cc1c[nH]cn1)C(=O)N[C@H](C(=O)N[C@H](C(=O)N[C@@H](CC(C)C)C(=O)N[C@@H](CC(C)C)C(=O)N[C@@H](CCCCN)C(=O)N[C@@H](C)C(=O)N[C@@H](CC(C)C)C(=O)NCC(=O)O)[C@@H](C)O)[C@@H](C)O)[C@@H](C)O [ML1-H1] (H-LQLHVLKAVSGLLTHTTLLKALG-OH; N-terminus and C-terminus assumed)
10 |  |  | 3434.3 | 1.05E−03 |  | CC[C@H](C)[C@H](NC(=O)[C@H](CCSC)NC(=O)[C@@H](NC(=O)[C@H](CC(C)C)NC(=O)[C@@H](NC(=O)[C@H](CC(C)C)NC(=O)[C@H](CC(C)C)NC(=O)CNC(=O)[C@H](CO)NC(=O)[C@@H](NC(=O)[C@H](C)NC(=O)[C@H](CCCCN)NC(=O)[C@H](CC(C)C)NC(=O)[C@@H](NC(=O)[C@H](Cc1c[nH]cn1)NC(=O)[C@H](CC(C)C)NC(=O)[C@H](CCC(N)=O)NC(=O)[C@@H](N)CC(C)C)C(C)C)C(C)C)[C@@H](C)O)[C@@H](C)O)C(=O)N[C@@H](CCCNC(=N)N)C(=O)N[C@@H](CCCNC(=N)N)C(=O)N[C@@H](C)C(=O)N[C@@H](CC(C)C)C(=O)NCC(=O)O [ML1-H2] (H-LQLHVLKAVSGLLTLTMIRRALG-OH; N-terminus and C-terminus assumed)
11 | 1.311 × 10^3 | 8.5 × 10^−3 | 1310.8 | 8.47E−03 | 6.46 µM | CC(C)C[C@H](NC(=O)CNC(=O)[C@H](CO)NC(=O)[C@@H](NC(=O)[C@H](C)NC(=O)[C@H](CCCCN)NC(=O)[C@H](CC(=O)O)NC(=O)[C@@H](NC(=O)[C@H](Cc1c[nH]cn1)NC(=O)[C@H](CC(C)C)NC(=O)[C@H](CCC(N)=O)NC(=O)[C@@H](N)CC(C)C)C(C)C)C(C)C)C(=O)N[C@@H](CCCNC(=N)N)C(=O)N[C@@H](CO)C(=O)N[C@@H](CC(C)C)C(=O)N[C@H](C(=O)N[C@H](C(=O)N[C@@H](CC(C)C)C(=O)N[C@@H](CC(C)C)C(=O)N[C@@H](CCCNC(=N)N)C(=O)N[C@@H](C)C(=O)N[C@@H](CC(C)C)C(=O)NCC(=O)O)[C@@H](C)O)[C@@H](C)O [ML1] (H-LQLHVDKAVSGLRSLTTLLRALG-OH; N-terminus and C-terminus assumed)
